Measurements taken from patent US20230158057A1, “COMPOSITIONS AND METHODS FOR THE TREATMENT OF PAIN” (Duke University, priority 2020, published 2023).

Experiments:
mice with CIPN = assay: Chemotherapy-induced peripheral neuropathy (CIPN) model established with paclitaxel; format: in vivo, mouse; details: i.p., 24 h after the 2nd injection
Description: Mouse pain models: The chemotherapy-induced peripheral neuropathy (CIPN) model of chronic neuropathic pain was established as we have done previously, using 8-10-week-old CD-1 (strain #022, Charles River) mice injected with paclitaxel (2 mg/kg i.p.) every other day, with 4 injections total. The chronic constriction injury (CCI) model of neuropathic pain was also produced using 8-10-week-old CD-1 under isoflurane anesthesia. Briefly, the right sciatic nerve was exposed above the hip and two ligatures (7-0 Prolene) were placed around the nerve 1 mm apart located proximal to the trifurcation. Ligatures were loosely tied until a subtle flick of the ipsilateral hind limb was observed. CD-1 mice were also used to establish the SNI model, which was generated by tightly ligating the tibial and common peroneal nerves followed by transection and removal of a ˜3 mm portion of the nerve. […] All mice were housed and monitored in accordance with AAALAC standards and Duke IACUC guidelines that pertained to each model.
Reflexive-based sensory testing in mice: All behavioral testing in mice was performed in a specialized humidity- and light-controlled mouse behavior facility maintained at 21-24° C., with testing conducted between the hours of 8:00-16:00. […] We determined the 50% paw withdrawal threshold using the up-down method. […]

[1] = tested on: mice with intrafemoral Lewis lung carcinoma (LLC); assay: Open field test in LLC bone cancer model; format: in vivo, mouse; details: d14 after tumor inoculation
Description: Behavior tests. All the behavioral tests were conducted in a blinded manner and performed during between the hours of 9:00-16:00. Animals were habituated in a light and humidity controlled testing environment for at least 2 days prior to baseline testing. For Von Frey testing, mice were confined to individual 5×5 cm boxes placed on an elevated wire grid. A blinded experimenter stimulated their hindpaws using a series of von Frey filaments with logarithmically increasing stiffness (0.02-2.56 g, Stoelting). Each filament was applied perpendicularly to the central plantar surface. The 50% paw withdrawal threshold was determined using Dixon's up-down method. In addition, we also measured paw withdrawal frequency to repeated stimulation (10 times, with ˜1-2 minutes between each stimulation) using a subthreshold 0.16 g von Frey filament, which is a more sensitive method to detect mechanical allodynia. […] To measure locomotor function, we performed open field testing in which mice were placed in the center of a 45×45 cm chamber and locomotor activity was recorded by an overhead webcam connected to a laptop computer, and animals' movements were automatically tracked for 30 minutes using ANY-Maze. The total distance traveled and mean speed during the 30-minute period were analyzed.

IFN-β = IFN-β ELISA in serum and bone marrow lysate after i.p. STING agonist, LLC model; format: in vivo, mouse; details: for serum IFN-β levels: 4 h after i.p. 20 mg/kg; for IFN-β in bone marrow (BM) lysate: 4 h after i.p., d3
Description: (§1) ELISA. Mouse high-sensitivity IFN-α ELISA kit (42115-1) and IFN-β ELISA kit (42410-1) were purchased from PBL Assay Science. Mouse CTX-I ELISA kit (AC-06F1) and mouse PINP ELISA kit (AC-33F1) were purchased from Immunodiagnostic Systems. ELISA was performed using culture medium, serum, and bone marrow lysates. Serum was obtained from whole blood that was collected from a submandibular vein via facial vein puncture, coagulated for 30 minutes at room temperature, followed by centrifugation (2,000 ×g for 10 min, 4° C.) and collection of the supernatant (serum). Bone marrow was homogenized in a lysis buffer containing protease inhibitors at 4° C. for 30 minutes. ELISA was conducted in accordance with the manufacturer's instructions. A standard curve was performed for each experiment.

IFN-α = IFN-α ELISA on BMDM culture medium; format: cell-based, mouse; details: 24 h after incubation
Description: as §1
In vitro induction of osteoclastogenesis and TRAP staining. For in vitro drug treatment, the RAW 264.7 cells were incubated with 35 ng/ml RANKL for six days. Isolated bone marrow cells were cultured overnight in α-MEM media containing 10% fetal bovine serum and 1% antibiotic-antimycotic solution. The suspended cells were collected and incubated with 20 ng/ml MCSF for 3 days to obtain bone marrow-derived macrophage (BMDM). The attached cells were further activated by 35 ng/ml RANKL and 20 ng/ml MCSF. Drug treatment was performed in tandem with RANKL. Culture medium and co-cultured reagents were changed every 3 days. […]

Cc1ccc2c(=O)c3cccc(CC(=O)O)c3oc2c1C [DMXAA, 2-(5,6-dimethyl-9-oxo-9H-xanthen-4-yl)acetic acid]
deaths (toxicity with systemic administration) (mice with CIPN): 3 mice
open field distance and speed of movement [1]: greater overall distance of movement and increased speed of movement
serum IFN-β levels (IFN-β): dramatically upregulated
IFN-β in bone marrow (BM) lysate (IFN-β): sharply increased
IFN-α levels in the culture medium (IFN-α): drastic increase in IFN-α and IFN-β levels

Nc1ncnc2c1ncn2[C@@H]1O[C@@H]2COP(=O)([S-])O[C@@H]3[C@H](O)[C@@H](COP([O-])(=S)O[C@H]2[C@H]1O)O[C@H]3n1cnc2c(N)ncnc21.[Na+].[Na+] (stereo partly drawn) [ADU-S100, (2′-5′)-[P(R)]-5′-O-[(R)-hydroxymercaptophosphinyl]-P-thioadenylyl-adenosine cyclic dinucleotide]
deaths (toxicity with systemic administration) (mice with CIPN): No mice died
open field distance and speed of movement [1]: increased overall distance of movement and increased speed of movement
serum IFN-β levels (IFN-β): dramatically upregulated
IFN-β in bone marrow (BM) lysate (IFN-β): sharply increased
IFN-α levels in the culture medium (IFN-α): drastic increase in IFN-α and IFN-β levels
